Tested on: HPB-ALL cells
Assay: Inhibition of CD95-independent apoptosis induced by anti-CXCR4 antibody (12G5) in HPB-ALL cells
Type: cell-based
Conditions: HPB-ALL cells incubated with 250 nM SDF-1α at 37° C. for 30 minutes, then induction with anti-CXCR4 antibody 12G5
Description: 1×10^5 HPB-ALL cells are incubated with 5 μg/ml mouse anti-CD4 antibody (HP2/6) and mouse anti CXCR4 antibody (12G5), respectively, at 37° C. for 15 minutes. Then, the bound antibodies are reacted with sheep anti-mouse antibodies (100 μg/ml, Boehringer). Apoptosis detection is carried out in which an FSC/SSC analysis is run in an FACScan cytometer at various times (cf. FIG. 1). HPB-ALL cells are incubated with 250 nM SDF-1α at 37° C. for 30 minutes. The cells are then subjected to an apoptosis induction using the mouse anti-CXCR4 antibody (12G5), as described above under item I. (a).

SDF-1α was tested, and the “Prevention of induction of CD95-independent apoptosis” value was “can be prevented”.

From US6485929B1, “Method for inhibiting CD95-independent apoptosis in AIDS” (Deutsches Krebsforschungzentrum Stiftung des offentlichen …, priority 1998, dated 2002)
